According to US11491167B2, “Combination product of Bcl-2 inhibitor and chemotherapeutic agent and use thereof in the prevention and/or treatment of diseases” (ASCENTAGE PHARMA (SUZHOU) CO., LTD., priority 2018, dated 2022):
Where “and” joins values, the source holds several entries; their conditions need not be identical. Identical values can stand only once. Like-named read-outs stand apart in the source and are kept apart here.

What was measured:
[1] = tested on: human NCI-H146 (SCLC) mouse xenograft tumor model; conditions: 5 mice per group; for RTV on day 21 after administration (mean ± standard error) / T/C (%) on day 21 after administration / RTV on day 35 after administration (mean ± standard error) / T/C (%) on day 35 after administration: Compound 6 100 mg/kg p.o. qd; for RTV on day 21 after administration (mean ± standard error) / T/C (%) on day 21 after administration: TPT 1 mg/kg p.o. d1-5/w then d1-3/w; for RTV on day 35 after administration (mean ± standard error) / T/C (%) on day 35 after administration: TPT 1 mg/kg p.o.; for CR (tumor complete regression), mice on day 21 after administration / PR (tumor partial regression), mice on day 21 after administration: Compound 6 100 mg/kg, TPT 1 mg/kg; for CR (tumor complete regression), mice on day 46 after administration / PR (tumor partial regression), mice on day 46 after administration / Tumor remission rate % on day 46 after administration: day 46, observation after discontinuation; for Tumor remission rate % on day 21 after administration / Tumor remission rate % on day 46 after administration: remission including CR, PR and SD
Procedure: A subcutaneous xenograft tumor model of human tumor immunodeficient mice was established by cell inoculation: tumor cells in logarithmic growth phase were collected, counted and resuspended in 1×PBS, and the cell suspension concentration was adjusted to 2.5-5×10^7/mL. Using a 1 mL syringe ([…]), the tumor cells were inoculated subcutaneously in the right side of immunodeficient mice, 5-10×106/0.2 mL/mouse (All animals were purchased from Beijing Vital River Laboratory Animal Technology Co., Ltd. SCXK (Beijing) 2012-0001). All animal experiments were strictly in accordance with the laboratory animal use and management practices of GenePharma Co., Ltd. and Ascentage Pharma Group Co., Ltd. The calculation of relevant parameters referred to the Chinese CFDA “Guidelines for Non-Clinical Research Techniques of Cytotoxic Antitumor Drugs”. The NCI-H146 cells used in the Institute were a gift from Professor Wang Shaomeng of the University of Michigan, USA.
Animal body weight and tumor size were measured twice a week during the experiment. The conditions and death of the animals were observed every day. Routine monitoring included the effects of tumor growth and treatment on normal animal behaviors, including activity, feeding and drinking situations, weight gain or loss, eyes, coat and other abnormalities in the experimental animals. The deaths and clinical symptoms observed during the experiment were recorded in the raw data. The entire operations of administration, measurement of mouse body weight and tumor volume were performed in a clean bench. Plasma and tumor tissues were collected, weighed and photographed after the end of the last administration according to the experimental protocol. Plasma and tumor samples were frozen and stored at −80° C.
Tumor volume (TV) was calculated as: TV=a×b2/2, in which a and b represented the length and width of the tumor as measured, respectively. The relative tumor volume (RTV) was calculated as: RTV=Vt/V1, in which V1 was the tumor volume at the time of grouping and administration, and Vt was the tumor volume measured on a day after administration. […] Change of body weight %=(measured body weight−body weight at the time of grouping)/body weight at the time of grouping×100%.
The synergistic analysis was performed by the following formula 6: synergy factor=((A/C)×(B/C))/(AB/C); A=RTV value of the group administered with A only; B=RTV value of the group administered with B only; C=RTV value of the vehicle control group; AB=RTV value of the group administered with A and B in combination (Clarke R. Issues in experimental design and endpoint analysis in the study of experimental cytotoxic agents in vivo in breast cancer and other models [J]. Breast Cancer Research & Treatment, 1997, 46(2-3): 255-278).
(1) The experimental method was as described in Section (2) of Example 1. In the experiment, the SCLC mouse xenograft tumor model derived from human NCI-H146 tumor cells was established (Gould S E et al. Translational value of mouse models in oncology drug development. Nature medicine. 2015 21, 431-439). When the tumor volume reached 100-200 mm3, randomization was performed according to tumor volume and mouse body weight, and two independent in vivo experiments were performed on the model to evaluate the anti-tumor effects of the combination of Compound 6 and the chemotherapeutic agent TPT (topotecan).
In this experiment, Compound 6 was administered at a dose of 100 mg/kg, p.o., qd; TPT was administered at a dose of 1 mg/kg, p.o., d1-5/w (i.e., a 2-day interval after 5 days of administration).

[2] = tested on: NCI-H146 (small cell lung cancer (SCLC)); test: WST (CCK-8) anti-proliferation experiment, topotecan alone or combined with Compound 6; type: cell-based; conditions: Homo sapiens, NCI-H146, 72 h, topotecan alone, read-out: IC50 for proliferation inhibition

| SMILES | RTV on day 21 after administration (mean ± standard error) [1] | T/C (%) on day 21 after administration [1] [%] | RTV on day 35 after administration (mean ± standard error) [1] | T/C (%) on day 35 after administration [1] [%] | CR (tumor complete regression), mice on day 21 after administration [1] | PR (tumor partial regression), mice on day 21 after administration [1] | CR (tumor complete regression), mice on day 46 after administration [1] | PR (tumor partial regression), mice on day 46 after administration [1] | Tumor remission rate % on day 21 after administration [1] [%] | Tumor remission rate % on day 46 after administration [1] [%] | IC50 ([2]; NCI-H146 (SCLC), first experiment) [nM] | IC50 ([2]; another NCI-H146 (SCLC) experiment) [nM] | CR (tumor complete regression), mice on day 21 after administration ([1]; listed as TPT) | PR (tumor partial regression), mice on day 21 after administration ([1]; listed as TPT) |
| --- | --- | --- | --- | --- | --- | --- | --- | --- | --- | --- | --- | --- | --- | --- |
| O=C(NS(=O)(=O)c1ccc(NC[C@H]2COCCO2)c([N+](=O)[O-])c1)c1ccc(N2CCN(CC3=C(c4ccc(Cl)cc4)CC4(CCC4)CC3)CC2)cc1Oc1cnc2[nH]ccc2c1 [Compound 6, (S)-N-((4-(((1,4-dioxan-2-yl)methyl)amino)-3-nitrophenyl)sulfonyl)-2-((1H-pyrrolo[2,3-b]pyridin-5-yl)oxy)-4-(4-((6-(4-chlorophenyl)spiro[3.5]non-6-en-7-yl)methyl)piperazin-1-yl)benzamide] | 2.51 ± 0.25 | 49 | 4.89 ± 0.39 | 52 | 0/5CR, 0/5PR, | 0/5CR, 0/5PR, | 0/5CR, 0/5PR, | 0/5CR, 0/5PR, | 0 | 0 |  |  |  |  |
| CC[C@@]1(O)C(=O)OCc2c1cc1n(c2=O)Cc2cc3c(CN(C)C)c(O)ccc3nc2-1 [topotecan] | 0.26 ± 0.12 | 5 | 0.77 ± 0.35 | 8 |  |  | 2/5 | 0/5 | 100 | 40 | 127 | 68 | 2 and 2/5 | 3 and 3/5 |
